From patent US20070149508A1, “Six membered heteroaromatic inhibitors targeting resistant kinase mutations” (TargeGen, Inc., priority 2005, published 2007)
Counter-ions that a name gives are not always drawn.

Tests used:
Abl (T315I) = molecular target: T1, Abl (T315I) (Homo sapiens, UniProt P00519, T315I); test: Abl (T315I) Kinase Assay (KinaseGlo luminescent detection of residual ATP); format: biochemical; settings: Abl (T315I) IC50 (nM), Abl (T315I) (Upstate, 17 ng/well), Abltide 100 uM, ATP 500 nM, 60 minutes at 37° C.
T1 construct: purchased Upstate
Experimental: The assay was performed similarly to the Abl kinase assay. Abl (T315I) (Upstate, 17 ng/well); Abltide substrate (100 uM) and ATP (500 nM) comprised the reaction mixture. Compound was similarly diluted, and the reaction plate was incubated for 60 minutes at 37° C.

Abl kinase = Abl kinase (Homo sapiens, UniProt P00519); test: biochemical; settings: Abl IC50 (nM), Abl kinase (Invitrogen, 20 ng/well), Abltide 100 μM, ATP 500 nM, 37° C. for 60 minutes, top concentration 10 uM
Experimental: Kinase activity was assessed using luminescent detection (KinaseGlo, Promega) of residual ATP concentration in reaction mixtures containing optimized levels of kinase, substrate, ATP, compound and appropriate buffers. Kinase, substrate and ATP concentrations were determined per the supplier's recommendations. Briefly, this involved running concentration curves to select for optimal signal.
The reaction mixture (50 ul/well) consisted of Abl kinase (Invitrogen, 20 ng/well); Abltide peptide substrate (Upstate, 100 μM) and ATP (500 nM). Each compound was evaluated at a top concentration of 10 uM with 1:3 dilution steps, 10 dilution steps total. Compound was diluted into DMSO and transferred to the reaction plate, resulting in a final DMSO concentration of 2%. This amount of DMSO was determined not to interfere with the enzyme. The reaction was conducted at 37° C. for 60 minutes. The degree of inhibition was assessed using IC50 determinations, which were obtained using GraphPad Prism4.

SMILES | IC50 (Abl (T315I)) [nM] | IC50 (Abl kinase) [nM]
CCNC(=O)N1CCC(S(=O)(=O)c2ccc(Nc3ncc(/C=C/c4ccc5nc(N)sc5c4)cn3)cc2)CC1 [4-(4-{5-[2-(2-Amino-benzothiazol-6-yl)-vinyl]-benzenesulfonyl)-piperidine-pyrimidin-2-ylamino)-1-carboxylic acid ethylamide] | 237 | 233
N#Cc1ccc(Nc2ncc(/C=C/c3cccc4[nH]ccc34)cn2)cc1 [4-(5-((E)-2-(1H-indol-4-yl)vinyl)pyrimidin-2-ylamino)benzonitrile] | > 10000 | 174
O=S(=O)(c1ccc(Nc2ncc(/C=C/c3ccc(O)c(O)c3)cn2)cc1)C1CCNCC1 [4-((E)-2-(2-(4-(piperidin-4-ylsulfonyl)phenylamino)pyrimidin-5-yl)vinyl)benzene-1,2-diol Hydrochloride] | 40 | 25
Nc1nc2c(/C=C/c3cnc(Nc4ccc(S(=O)(=O)C5CCNCC5)cc4)nc3)cccc2s1 [4-((E)-2-(2-(4-(piperidin-4-ylsulfonyl)phenylamino)pyrimidin-5-yl)vinyl)benzo[d]thiazol-2-amine Hydrochloride] | 394 | 39
O=S(=O)(NCCN1CCCC1)c1ccc(Nc2ncc(/C=C/c3cccc4[nH]ccc34)cn2)cc1 [4-({5-[(E)-2-(1H-indol-4-yl)vinyl]pyrimidin-2-yl}amino)--N-[4-(2-pyrrolidin-1-ylethyl)benzenesulfonamide] | 738 | 26
Nc1nc2ccc(/C=C/c3cnc(Nc4ccc(S(=O)(=O)N(CCO)C5CCNCC5)cc4)nc3)cc2s1 [4-({5-[(E)-2-(2-amino-1,3-benzothiazol-6-vinyl]pyrimidin-2-yl}amino)-N-(2-hydroxyethyl)-N-piperidin-4-ylbenzenesulfonamide] | 33 | 84
Nc1nc2ccc(/C=C/c3cnc(Nc4ccc(S(=O)(=O)NCCO)c(N5CCNCC5)c4)nc3)cc2s1 [4-({5-[(E)-2-(2-amino-1,3-benzothiazol-6-yl)vinyl]pyrimidin-2-yl}amino)-N-(2-hydroxyethyl)-2-piperazin-1-ylbenzenesulfonamide] | 354 | 585
CN(C)CCN(C1CCNCC1)S(=O)(=O)c1ccc(Nc2ncc(/C=C/c3ccc4nc(N)sc4c3)cn2)cc1 [4-({5-[(E)-2-(2-amino-1,3-benzothiazol-6-yl)vinyl}pyrimidin-2-yl}amino)-N-[2-(dimethylamino)ethyl]-N-piperidin-4-ylbenzenesulfonamide] | 38 | 109
O=S(=O)(c1ccc(Nc2ncc(/C=C/c3cc(O)ccc3Cl)cn2)cc1)C1CCNCC1 [4-Chloro-3-(2-{2-[4-(piperidine-4-sulfonyl)-phenylamino]-pyrimidin-5-yl}-vinyl)-phenol] | 96 | 3.8
O=S(=O)(NCCN1CCCC1)c1ccc(Nc2ncc(/C=C/c3cccc4[nH]ncc34)cn2)cc1 [4-{5-[2-(1H-Indazol-4-yl)-vinyl]-pyrimidin-2-ylamino}-N-(2-pyrrolidin-1-yl-ethyl)-benzenesulfonamide] | 133 | 7.6
O=S(=O)(NC1CCNCC1)c1ccc(Nc2ncc(/C=C/c3cccc4[nH]ncc34)cn2)cc1 [4-{5-[2-(1H-Indazol-4-yl)-vinyl]-pyrimidin-2-ylamino}-N-piperidin-4-yl-benzenesulfonamide hydrochloride] | 176 | 6.2
O=S(=O)(NC1CCNCC1)c1ccc(Nc2ncc(/C=C/c3cccc4[nH]ccc34)cn2)cc1 [4-{5-[2-(1H-Indol-4-yl)-vinyl]-pyrimidin-2-ylamino}-N-piperidin-4-yl-benzenesulfonamide] | 282 | 12
Nc1nc2ccc(/C=C/c3cnc(Nc4ccc(S(=O)(=O)NC5CCNCC5)cc4)nc3)cc2s1 [4-{5-[2-(2-Amino-benzothiazol-6-yl)-vinyl]-piperidin-4-yl-benzenesulfonamide] | 29 | 47
CN(C1CCNCC1)S(=O)(=O)c1ccc(Nc2ncc(/C=C/c3ccc4nc(N)sc4c3)cn2)cc1 [4-{5-[2-(2-Amino-benzothiazol-6-yl)-vinyl]pyrimidin-2-ylamino}-N-methyl-N-piperidin-4-yl-benzensulfonamide Hydrochloride] | 45 | 93
Nc1nc2ccc(/C=C/c3cnc(Nc4ccc(S(=O)(=O)NC5CCCNC5)cc4)nc3)cc2s1 (stereo not drawn) [4-{5-[2-(2-Aminobenzothiazol-6-yl)-vinyl]-pyrimidin-2-ylamino}-N-piperidin-3-yl-benzenesulfonamide Hydrochloride] | 898 | 1440
O=S(=O)(NCCN1CCCC1)c1ccc(Nc2ncc(CCc3cc(O)ccc3Cl)cn2)cc1 [4-{5-[2-(2-Chloro-5-hydroxy-phenyl)-ethyl]-pyrimidin-2-ylamino}-N-(2-benzenesulfonamide hydrochloride] | 805 | 5
O=S(=O)(NCCN1CCCC1)c1ccc(Nc2ncc(/C=C/c3cc(O)ccc3Cl)cn2)cc1 [4-{5-[2-(2-Chloro-5-hydroxy-phenyl)-vinyl]-pyrimidin-2-ylamino}-N-(2-pyrrolidin-1-yl-ethyl)-benzenesulfonamide] | 390 | 7.7

SMILES | IC50 (Abl (T315I)) [nM] | IC50 (Abl kinase) [nM]
O=S(=O)(NCCN1CCCC1)c1ccc(Nc2ncc(/C=C/c3cc(O)ccc3F)cn2)cc1 [4-{5-[2-(2-Fluoro-5-hydroxy-phenyl)-vinyl]-pyrimidin-2-ylamino}-N-(2-pyrrolidin-1-yl-ethyl)-benzenesulfonamide] | 240 | 25
Cc1nc(Nc2ccc(S(=O)(=O)NCCN3CCCC3)cc2)ncc1/C=C/c1cccc(O)c1 [4-{5-[2-(3-Hydroxy-phenyl)-vinyl]-4-methyl-pyrimidin-2-ylamino}-N-(2-pyrrolidin-1-yl-ethyl)-benzenesulfonamide] | 436 | 39
Cc1cc(Nc2ncc(/C=C/c3cccc(O)c3)cn2)cc(C)c1S(=O)(=O)N(C)CCN1CCCC1 [4-{5-[2-(3-Hydroxy-phenyl)-vinyl]-pyrimidin-2-ylamino}-2,6,N-trimethyl-N-(2-pyrrolidin-1-yl-ethyl)-benzenesulfonamide] | 248 | 16
O=S(=O)(NCCN1CCCC1)c1ccc(Nc2ncc(/C=C/c3cccc(O)c3)cn2)cc1 [4-{5-[2-(3-Hydroxy-phenyl)-vinyl]-pyrimidin-2-ylamino}-N-(2-pyrrolidin-1-yl-ethyl)-benzenesulfonamide] | 141 | 7.1
O=S(=O)(NCCCO)c1ccc(Nc2ncc(/C=C/c3cccc(O)c3)cn2)cc1 [4-{5-[2-(3-Hydroxy-phenyl)-vinyl]-pyrimidin-2-ylamino}-N-(3-hydroxy-propyl)-benzenesulfonamide] | 112 | 8.9
O=S(=O)(NC1CCCNC1)c1ccc(Nc2ncc(/C=C/c3cccc(O)c3)cn2)cc1 (stereo not drawn) [4-{5-[2-(3-Hydroxy-phenyl)-vinyl]-pyrimidine-2-ylamino}-N-piperdin-3-yl-benzenesulfonamide Hydrochloride] | 60 | 12
O=S(=O)(NC1CCNCC1)c1ccc(Nc2ncc(/C=C/c3cccc(O)c3)cn2)cc1 [4-{5-[2-(3-Hydroxy-phenyl)-vinyl]-pyrimidine-2-ylamino}-N-piperdin-4-yl-benzenesulfonamide Hydrochloride] | 36 | 4.6
O=S(=O)(c1ccc(Nc2ncc(/C=C/c3ccc4c(c3)CC/C4=N/O)cn2)cc1)C1CCNCC1 [5-(2-{2-[4-(Piperidine-4-sulfonyl)-phenylamino]-pyrimidin-5-yl}-vinyl)-indan-1-one oxime] | 3650 | 593
O=S(=O)(c1ccc(Nc2ncc(/C=C/c3ccc4c(c3)CC/C4=N/O)cn2)cc1)C1CCNCC1 [5-(2-{2-[4-(Piperidine-4-sulfonyl)-phenylaminol]-pyrimidin-5-yl}-vinyl)-indan-1-one oxime] | 1800 | 2420
O=S(=O)(c1ccc(Nc2ncc(/C=C/c3cccc(-c4cn[nH]c4)c3)cn2)cc1)C1CCNCC1 [5-(3-(1H-pyrazol-4-yl)styryl)-N-(4-(piperidin-4-ylsulfonyl)phenyl)-pyrimidin-2-amine Hydrochloride] | 1980 | 1740
O=S(=O)(c1ccc(Nc2ncc(/C=C/c3cccc(C(F)F)c3)cn2)cc1)C1CCNCC1 [5-(3-(difluoromethyl)styryl)-N-(4-piperidin-4-ylsulfonyl)phenyl)pyrimidin 2-amine. Triflate] | 486 | 162
Cc1cccc(/C=C/c2cnc(Nc3ccc(S(=O)(=O)C4CCNCC4)cc3)nc2)c1 [5-(3-(methyl)styryl)-N-(4-(piperidin-4-ylsulfonyl)phenyl)pyrimidin-2-amine. TFA] | 562 | 51
O=S(=O)(c1ccc(Nc2ncc(/C=C/c3cccc(C(F)(F)F)c3)cn2)cc1)C1CCNCC1 [5-(3-(trifluoromethyl)styryl)-N-(4-(piperidin-4-ylsulfonyl)phenyl)pyrimidin-2-amine. TFA] | 3200 | 565
O=S(=O)(c1ccc(Nc2ncc(/C=C/c3ccc(C(F)F)cc3)cn2)cc1)C1CCNCC1 [5-(4-(difluoromethyl)styryl)-N-(4-(piperidin-4-ylsulfonyl)phenyl)pyrimidin-2-amine. Triflate] | 1330 | 429
O=S(=O)(c1ccc(Nc2ncc(/C=C/c3ccc4[nH]nnc4c3)cn2)cc1)C1CCNCC1 [5-((E)-2-(1H-benzo[d][1,2,3]triazol-5-yl)vinyl)-N-(4-(piperidin-4-ylsulfonyl)phenyl)pyrimidin-2-amine] | 467 | 75
O=S(=O)(c1ccc(Nc2ncc(/C=C/c3n[nH]c4ccccc34)cn2)cc1)C1CCNCC1 [5-((E)-2-(1H-indazol-3-yl)vinyl)-N-(4-(piperidin-4-ylsulfonyl)phenyl)pyrimidin-2-amine Hydrochloride] | 202 | 191
